Measured values taken from patent US20100298141A1, “SUBSTITUTED PYRIDINE N-OXIDE HERBICIDES” (E. I. DU PONT DE NEMOURS AND COMPANY, priority 2007, published 2010).

How the values were obtained:
[1] = test system: wild oat; assay: Test C pre-/postemergence test; format: in vivo, Avena fatua; details: Postemergence; for Plant response rating (0 to 100), Oat, Wild: 31 g ai/ha; for Plant response rating, Oat, Wild: scale 0 to 100, 0 no effect, 100 complete control
Procedure, shortened: (§1)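 Test chemicals were formulated with surfactant in a non-phytotoxic solvent and sprayed both on freshly planted seeds (preemergence) and on 1- to 4-leaf plants of 2–18 cm (postemergence). Flooded-paddy pots received compound directly into 3 cm of standing water, maintained for the test.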

[2] = test system: crabgrass; assay: Test C pre-/postemergence test; format: in vivo, Digitaria sanguinalis; details: Postemergence; for Plant response rating (0 to 100), Crabgrass, Large: 31 g ai/ha; for Plant response rating, Crabgrass, Large: scale 0 to 100, 0 no effect, 100 complete control
Procedure, shortened: as §1

[3] = test system: lambsquarters; assay: Test C pre-/postemergence test; format: in vivo, Chenopodium album; details: Postemergence; for Plant response rating (0 to 100), Lambsquarters: 31 g ai/ha; for Plant response rating, Lambsquarters: scale 0 to 100, 0 no effect, 100 complete control
Procedure, shortened: as §1

[4] = test system: green foxtail; assay: Test C pre-/postemergence test; format: in vivo, Setaria viridis; details: Postemergence; for Plant response rating (0 to 100), Foxtail, Green: 31 g ai/ha; for Plant response rating, Foxtail, Green: scale 0 to 100, 0 no effect, 100 complete control
Procedure, shortened: as §1

[5] = test system: velvetleaf; assay: Test C pre-/postemergence test; format: in vivo, Abutilon theophrasti; details: Postemergence; for Plant response rating, Velvetleaf: scale 0 to 100, 0 no effect, 100 complete control
Procedure, shortened: as §1

[6] = test system: johnsongrass; assay: Test C pre-/postemergence test; format: in vivo, Sorghum halepense; details: Postemergence; for Plant response rating (0 to 100), Johnsongrass: 31 g ai/ha; for Plant response rating, Johnsongrass: scale 0 to 100, 0 no effect, 100 complete control
Procedure, shortened: as §1

[7] = test system: redroot pigweed; assay: Test A pre-/postemergence greenhouse test; format: in vivo, Amaranthus retroflexus; details: for Plant response rating, Pigweed: 0 to 100 scale where 0 is no effect and 100 is complete control; for Pigweed plant response rating: 0 to 100 scale
Procedure, shortened: (§2)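 Greenhouse herbicide screen, pre- and postemergence in parallel. Soil: loam plus sand. Formulation: non-phytotoxic solvent mix with surfactant. Postemergence stage: one to two leaves, 2–10 cm height. Evaluation: visual injury, compared with untreated controls, about 10 days after treatment.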

[8] = test system: kochia; assay: Test C pre-/postemergence test; format: in vivo, Kochia scoparia; details: Postemergence; for Plant response rating (0 to 100), Kochia: 31 g ai/ha; for Plant response rating, Kochia: scale 0 to 100, 0 no effect, 100 complete control
Procedure, shortened: as §1

[9] = test system: downy brome; assay: Test C pre-/postemergence test; format: in vivo, Bromus tectorum; details: Postemergence; for Plant response rating (0 to 100), Bromegrass, Downy: 31 g ai/ha; for Plant response rating, Bromegrass, Downy: scale 0 to 100, 0 no effect, 100 complete control
Procedure, shortened: as §1

[10] = test system: rice; assay: Test C flooded paddy test; format: in vivo, Oryza sativa; details: Flood
Procedure, shortened: (§3)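 Compound was added to standing water 3 cm above soil, flood maintained, and plants held in a greenhouse before visual scoring against controls at 13 to 15 days.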

[11] = test system: giant foxtail; assay: Test C pre-/postemergence test; format: in vivo, Setaria faberii; details: Postemergence; for Plant response rating (0 to 100), Foxtail, Giant: 31 g ai/ha; for Plant response rating, Foxtail, Giant: scale 0 to 100, 0 no effect, 100 complete control
Procedure, shortened: as §1

[12] = test system: common ragweed; assay: Test C pre-/postemergence test; format: in vivo, Ambrosia elation; details: Postemergence; for Plant response rating, Ragweed: scale 0 to 100, 0 no effect, 100 complete control
Procedure, shortened: as §1

[13] = test system: velvetleaf; assay: Test A pre-/postemergence greenhouse test; format: in vivo, Abutilon theophrasti; details: for Plant response rating, Velvetleaf: 0 to 100 scale where 0 is no effect and 100 is complete control; for Velvetleaf plant response rating: 0 to 100 scale
Procedure, shortened: as §2

[14] = test system: duck salad; assay: Test C flooded paddy test; format: in vivo, Heteranthera limosa; details: Flood
Procedure, shortened: as §3

[15] = test system: Surinam grass; assay: Test C pre-/postemergence test; format: in vivo, Brachiaria decumbens; details: Postemergence; for Plant response rating, Surinam Grass: scale 0 to 100, 0 no effect, 100 complete control
Procedure, shortened: as §1

[16] = test system: cocklebur; assay: Test C pre-/postemergence test; format: in vivo, Xanthium strumarium; details: Postemergence; for Plant response rating (0 to 100), Cocklebur: 31 g ai/ha; for Plant response rating, Cocklebur: scale 0 to 100, 0 no effect, 100 complete control
Procedure, shortened: as §1

[17] = test system: barnyardgrass; assay: Test A pre-/postemergence greenhouse test; format: in vivo, Echinochloa crus-galli; details: for Plant response rating, Barnyardgrass: 0 to 100 scale where 0 is no effect and 100 is complete control; for Barnyardgrass plant response rating: 0 to 100 scale
Procedure, shortened: as §2

[18] = Postemergence, 500 g ai/ha, 0 is no effect, 100 is complete control
[19] = Preemergence, 125 g ai/ha, 0 no effect, 100 complete control
[20] = 62 g ai/ha, scale 0 to 100 (0 no effect, 100 complete control)
[21] = 250 g ai/ha, scale 0 to 100, 0 no effect, 100 complete control, 13 to 15 days

CCn1nc(C(F)(F)F)c(C(C)S(=O)(=O)c2cccc[n+]2[O-])c1OCC(F)(F)F (centres unmarked) [Compound 69]
10: Plant response rating, Bromegrass, Downy ([9]; 125 g ai/ha) | Velvetleaf plant response rating [13, 19]
100: Plant response rating, Pigweed ([7]; Preemergence, 500 g ai/ha) | Plant response rating, Velvetleaf ([13]; Preemergence, 500 g ai/ha) | Plant response rating, Ducksalad [14, 21] | Plant response rating, Barnyardgrass ([17]; Preemergence, 500 g ai/ha)
60: Plant response rating, Foxtail, Giant ([11]; 250 g ai/ha) | Barnyardgrass plant response rating [17, 19]
70: Pigweed plant response rating [7, 19] | Plant response rating, Rice [10, 21] | Plant response rating, Ducksalad [14, 20]
0: Plant response rating (0 to 100), Oat, Wild [1] | Plant response rating, Oat, Wild ([1]; 62 g ai/ha) | Plant response rating, Oat, Wild ([1]; 125 g ai/ha) | Plant response rating (0 to 100), Crabgrass, Large [2] | Plant response rating, Crabgrass, Large ([2]; 62 g ai/ha) | Plant response rating, Crabgrass, Large ([2]; 125 g ai/ha) | Plant response rating, Crabgrass, Large ([2]; 250 g ai/ha) | Plant response rating (0 to 100), Lambsquarters [3] | Plant response rating, Lambsquarters ([3]; 62 g ai/ha) | Plant response rating, Lambsquarters ([3]; 125 g ai/ha) | Plant response rating, Lambsquarters ([3]; 250 g ai/ha) | Plant response rating (0 to 100), Foxtail, Green [4] | Plant response rating, Foxtail, Green ([4]; 62 g ai/ha) | Plant response rating (0 to 100), Velvetleaf ([5]; 31 g ai/ha) | Plant response rating (0 to 100), Velvetleaf ([5]; 62 g ai/ha) | Plant response rating, Velvetleaf ([5]; 125 g ai/ha) | Plant response rating, Velvetleaf ([5]; 250 g ai/ha) | Plant response rating (0 to 100), Johnsongrass [6] | Plant response rating, Johnsongrass ([6]; 62 g ai/ha) | Plant response rating (0 to 100), Kochia [8] | Plant response rating, Kochia ([8]; 62 g ai/ha) | Plant response rating, Kochia ([8]; 125 g ai/ha) | Plant response rating, Kochia ([8]; 250 g ai/ha) | Plant response rating (0 to 100), Bromegrass, Downy [9] | Plant response rating, Bromegrass, Downy ([9]; 62 g ai/ha) | Plant response rating (0 to 100), Foxtail, Giant [11] | Plant response rating, Foxtail, Giant ([11]; 62 g ai/ha) | Plant response rating, Foxtail, Giant ([11]; 125 g ai/ha) | Plant response rating (0 to 100), Ragweed ([12]; 31 g ai/ha) | Plant response rating (0 to 100), Ragweed ([12]; 62 g ai/ha) | Plant response rating, Ragweed ([12]; 125 g ai/ha) | Plant response rating, Ragweed ([12]; 250 g ai/ha) | Plant response rating (0 to 100), Surinam Grass ([15]; 31 g ai/ha) | Plant response rating (0 to 100), Surinam Grass ([15]; 62 g ai/ha) | Plant response rating, Surinam Grass ([15]; 125 g ai/ha) | Plant response rating, Surinam Grass ([15]; 250 g ai/ha) | Plant response rating (0 to 100), Cocklebur [16] | Plant response rating, Cocklebur ([16]; 62 g ai/ha) | Plant response rating, Cocklebur ([16]; 125 g ai/ha) | Plant response rating, Cocklebur ([16]; 250 g ai/ha)
20: Plant response rating, Johnsongrass ([6]; 125 g ai/ha)
45: Plant response rating, Bromegrass, Downy ([9]; 250 g ai/ha)
90: Plant response rating, Oat, Wild ([1]; 250 g ai/ha) | Plant response rating, Foxtail, Green ([4]; 250 g ai/ha) | Pigweed plant response rating [7, 18] | Barnyardgrass plant response rating [17, 18]
30: Plant response rating, Foxtail, Green ([4]; 125 g ai/ha) | Plant response rating, Pigweed ([7]; Postemergence, 125 g ai/ha)
50: Plant response rating, Velvetleaf ([13]; Postemergence, 125 g ai/ha)
80: Velvetleaf plant response rating [13, 18] | Plant response rating, Barnyardgrass ([17]; Postemergence, 125 g ai/ha)
40: Plant response rating, Johnsongrass ([6]; 250 g ai/ha) | Plant response rating, Rice [10, 20]

Cn1nc(C(F)(F)F)c(C[S+]([O-])c2cccc[n+]2[O-])c1OCC(F)(F)C(F)(F)F (centres unmarked) [Compound 78]
70: Plant response rating, Rice [10, 21] | Velvetleaf plant response rating [13, 18] | Plant response rating, Ducksalad [14, 21] | Plant response rating, Surinam Grass ([15]; 250 g ai/ha) | Barnyardgrass plant response rating [17, 19]
50: Plant response rating, Pigweed ([7]; Postemergence, 125 g ai/ha)
10: Pigweed plant response rating [7, 19] | Plant response rating, Rice [10, 20]
90: Plant response rating, Velvetleaf ([13]; Preemergence, 500 g ai/ha)
45: Plant response rating, Foxtail, Green ([4]; 125 g ai/ha) | Plant response rating, Johnsongrass ([6]; 250 g ai/ha) | Plant response rating, Foxtail, Giant ([11]; 125 g ai/ha) | Plant response rating, Foxtail, Giant ([11]; 250 g ai/ha)
80: Plant response rating, Foxtail, Green ([4]; 250 g ai/ha) | Plant response rating, Barnyardgrass ([17]; Postemergence, 125 g ai/ha) | Barnyardgrass plant response rating [17, 18]
30: Plant response rating, Velvetleaf ([13]; Postemergence, 125 g ai/ha) | Plant response rating, Ducksalad [14, 20]
100: Plant response rating, Pigweed ([7]; Preemergence, 500 g ai/ha) | Plant response rating, Barnyardgrass ([17]; Preemergence, 500 g ai/ha)
60: Pigweed plant response rating [7, 18]
0: Plant response rating (0 to 100), Oat, Wild [1] | Plant response rating, Oat, Wild ([1]; 62 g ai/ha) | Plant response rating, Oat, Wild ([1]; 125 g ai/ha) | Plant response rating, Oat, Wild ([1]; 250 g ai/ha) | Plant response rating (0 to 100), Crabgrass, Large [2] | Plant response rating, Crabgrass, Large ([2]; 62 g ai/ha) | Plant response rating, Crabgrass, Large ([2]; 125 g ai/ha) | Plant response rating (0 to 100), Lambsquarters [3] | Plant response rating, Lambsquarters ([3]; 62 g ai/ha) | Plant response rating, Lambsquarters ([3]; 125 g ai/ha) | Plant response rating, Lambsquarters ([3]; 250 g ai/ha) | Plant response rating (0 to 100), Foxtail, Green [4] | Plant response rating, Foxtail, Green ([4]; 62 g ai/ha) | Plant response rating (0 to 100), Velvetleaf ([5]; 31 g ai/ha) | Plant response rating (0 to 100), Velvetleaf ([5]; 62 g ai/ha) | Plant response rating, Velvetleaf ([5]; 125 g ai/ha) | Plant response rating (0 to 100), Johnsongrass [6] | Plant response rating, Johnsongrass ([6]; 62 g ai/ha) | Plant response rating, Johnsongrass ([6]; 125 g ai/ha) | Plant response rating (0 to 100), Kochia [8] | Plant response rating, Kochia ([8]; 62 g ai/ha) | Plant response rating, Kochia ([8]; 125 g ai/ha) | Plant response rating, Kochia ([8]; 250 g ai/ha) | Plant response rating (0 to 100), Bromegrass, Downy [9] | Plant response rating, Bromegrass, Downy ([9]; 62 g ai/ha) | Plant response rating, Bromegrass, Downy ([9]; 125 g ai/ha) | Plant response rating, Bromegrass, Downy ([9]; 250 g ai/ha) | Plant response rating (0 to 100), Foxtail, Giant [11] | Plant response rating, Foxtail, Giant ([11]; 62 g ai/ha) | Plant response rating (0 to 100), Ragweed ([12]; 31 g ai/ha) | Plant response rating (0 to 100), Ragweed ([12]; 62 g ai/ha) | Plant response rating, Ragweed ([12]; 125 g ai/ha) | Plant response rating, Ragweed ([12]; 250 g ai/ha) | Velvetleaf plant response rating [13, 19] | Plant response rating (0 to 100), Surinam Grass ([15]; 31 g ai/ha) | Plant response rating (0 to 100), Surinam Grass ([15]; 62 g ai/ha) | Plant response rating, Surinam Grass ([15]; 125 g ai/ha) | Plant response rating (0 to 100), Cocklebur [16] | Plant response rating, Cocklebur ([16]; 62 g ai/ha) | Plant response rating, Cocklebur ([16]; 125 g ai/ha) | Plant response rating, Cocklebur ([16]; 250 g ai/ha)
20: Plant response rating, Crabgrass, Large ([2]; 250 g ai/ha) | Plant response rating, Velvetleaf ([5]; 250 g ai/ha)
